US10294202B2, “Pyrrolidinones as herbicides” (FMC Corporation, priority 2013, dated 2019)

Key:
[1] = system: goosegrass; assay: Test E preemergence herbicide test; type: in vivo, Eleusine indica; set-up: key: 0 = no effect, 100 = complete control
Outline: (§1)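 Greenhouse preemergence test: seeds sown into silt loam received compound in a non-phytotoxic solvent mixture with surfactant. Plants grew 21 days before visual comparison with controls. Scores run from 0, no effect, to 100, complete control.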

[2] = system: dayflower, VA; assay: Test E preemergence herbicide test; type: in vivo, Commelina virginica; set-up: key: 0 = no effect, 100 = complete control
Text: (§2) Seeds of plant species selected from corn (Zea mays), soybean (Glycine max), velvetleaf (Abutilon theophrasti), lambsquarters (Chenopodium album), wild poinsettia (Euphorbia heterophylla), pigweed, palmer (palmer pigweed, Amaranthus palmeri), waterhemp (common waterhemp, Amaranthus rudis), surinam grass (Brachiaria decumbens), crabgrass, large (large crabgrass, Digitaria sanguinalis), crabgrass, Brazil (Brazilian crabgrass, Digitaria horizontalis), panicum, fall (fall panicum, Panicum dichotomiflorum), foxtail, giant (giant foxtail, Setaria faberii), foxtail, green (green foxtail, Setaria viridis), goosegrass (Eleusine indica), johnsongrass (Sorghum halepense), ragweed (common ragweed, Ambrosia elatior), barnyardgrass (Echinochloa crus-galli), sandbur (southern sandbur, Cenchrus echinatus), arrowleaf […] rhombifolia), ryegrass, Italian (Italian ryegrass, Lolium multiflorum), dayflower, VA (Virginia dayflower, Commelina virginica), field bindweed (Convolvulus arvensis), morningglory (Ipomoea coccinea), nightshade (eastern black nightshade, Solanum ptycanthum), kochia (Kochia scoparia), nutsedge, yellow (yellow nutsedge, Cyperus esculentus), cocklebur (common cocklebur, Xanthium strumarium), smartweed (ladysthumb smartweed, Polygonum Persicaria) and beggarticks (hairy beggarticks, Bidens pilosa), were planted into a silt loam soil and treated preemergence with test chemicals formulated in a non-phytotoxic solvent mixture which included a surfactant. Treated plants and controls were maintained in a greenhouse for 21 days, after which time all species were compared to controls and visually evaluated. Plant response ratings, summarized in Table E, are based on a scale of 0 to 100 where 0 is no effect and 100 is complete control. A dash (-) response means no test result.

[3] = system: foxtail, giant; assay: Test E preemergence herbicide test; type: in vivo, Setaria faberii; set-up: key: 0 = no effect, 100 = complete control
Outline: as §1

[4] = system: ragweed; assay: Test E preemergence herbicide test; type: in vivo, Ambrosia elatior; set-up: key: 0 = no effect, 100 = complete control
Text: as §2

[5] = system: canarygrass; assay: Test D pre-/postemergence herbicide test; type: in vivo, Phalaris minor; conditions: for Plant response rating: Canarygrass, scale 0 to 100; for Plant response rating, Canarygrass: scale 0 to 100 (0 no effect, 100 complete control)
Outline: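 Visual injury score, 0 (no effect) to 100 (complete control), taken 7–21 d post-treatment against untreated controls. Application was preemergence in silt loam and postemergence at 1- to 4-leaf stage, using a surfactant-containing non-phytotoxic solvent formulation.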

[6] = system: kochia; assay: Test C pre-/postemergence herbicide test; type: in vivo, Kochia scoparia; conditions: Postemergence
Outline: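 Pre-emergence: seeds sown in loam/sand blend and treated with compound in surfactant-containing solvent. Post-emergence: plants at 2–18 cm (1- to 4-leaf stage) in peat-based medium sprayed with the same formulation. Visual rating versus controls after 13–15 days in greenhouse, scale 0 (no effect) to 100 (complete control).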

[7] = 125 g ai/ha, scale 0 to 100 (0 no effect, 100 complete control)
[8] = 250 g ai/ha, scale 0 to 100 (0 no effect, 100 complete control)
[9] = 31 g ai/ha, scale 0 to 100 (0 no effect, 100 complete control)
[10] = 62 g ai/ha, scale 0 (no effect) to 100 (complete control)

| SMILES | Plant response rating, Goosegrass ([1]; 31 g ai/ha) | Plant response rating, Goosegrass ([1]; 62 g ai/ha) | Plant response rating, Goosegrass ([1]; 125 g ai/ha) | Plant response rating, Goosegrass ([1]; 250 g ai/ha) | Plant response rating, Dayflower, VA ([2]; 31 g ai/ha) | Plant response rating, Dayflower, VA ([2]; 62 g ai/ha) | Plant response rating, Dayflower, VA ([2]; 125 g ai/ha) | Plant response rating, Dayflower, VA ([2]; 250 g ai/ha) | Plant response rating, Foxtail, Giant ([3]; 31 g ai/ha) | Plant response rating, Foxtail, Giant ([3]; 62 g ai/ha) | Plant response rating, Foxtail, Giant ([3]; 125 g ai/ha) | Plant response rating, Foxtail, Giant ([3]; 250 g ai/ha) | Plant response rating, Ragweed ([4]; 31 g ai/ha) | Plant response rating, Ragweed ([4]; 62 g ai/ha) | Plant response rating, Ragweed ([4]; 125 g ai/ha) | Plant response rating, Ragweed ([4]; 250 g ai/ha) | Plant response rating, Canarygrass ([5]; Preemergence, 62 g ai/ha) | Plant response rating, Canarygrass ([5]; Preemergence, 31 g ai/ha) | Plant response rating ([5]; Preemergence, 250 g ai/ha) | Plant response rating, Kochia [6, 7] | other results |
| --- | --- | --- | --- | --- | --- | --- | --- | --- | --- | --- | --- | --- | --- | --- | --- | --- | --- | --- | --- | --- | --- |
| O=C1NCC(c2ccc(C(F)(F)F)cc2)C1C(=O)Nc1cccc(F)c1F (centres unmarked) [Compound 80, N-(2,3-difluorophenyl)-2-oxo-4-[4-(trifluoromethyl)phenyl]-3-pyrrolidinecarboxamide] | 30 | 60 | 70 | 80 | 0 | 0 | 0 | 0 | 65 | 75 | 80 | 90 | 0 | 0 | 0 | 20 | 0 | 0 | 20 | 65 | Plant response rating, Goosegrass ([1]; 16 g ai/ha): 10; Plant response rating, Dayflower, VA ([2]; 16 g ai/ha): 0; Plant response rating, Foxtail, Giant ([3]; 16 g ai/ha): 0; Plant response rating, Ragweed ([4]; 16 g ai/ha): 0; Plant response rating ([5]; Postemergence, 31 g ai/ha): 0; Plant response rating ([5]; Postemergence, 62 g ai/ha): 0; Plant response rating ([5]; Postemergence, 125 g ai/ha): 0; Plant response rating ([5]; Postemergence, 250 g ai/ha): 0; Plant response rating ([5]; Preemergence, 125 g ai/ha): 10; Plant response rating, Kochia ([6]; 31 g ai/ha, scale 0 (no effect) to 100 (complete control)): 30; Plant response rating, Kochia ([6]; 62 g ai/ha, scale 0 to 100 (0 no effect, 100 complete control)): 55; Plant response rating, Kochia [6, 8]: 65 |
| O=C1NC[C@H](c2cccc(C(F)(F)F)c2)[C@H]1C(=O)Nc1ccccc1F [Compound 204, (3R,4S)—N-(2-fluorophenyl)-2-oxo-4-[3-(trifluoromethyl)phenyl]-3-pyrrolidinecarboxamide] | 0 | 0 | 0 | 0 | 0 | 0 | 20 | 30 | 50 | 95 | 95 | 98 | 0 | 0 | 0 | 0 | 10 | 0 | 75 | 40 | Plant response rating, Canarygrass ([5]; Preemergence, 125 g ai/ha): 10; Plant response rating, Kochia [6, 9]: 10; Plant response rating, Kochia [6, 10]: 30; Plant response rating, Kochia [6, 8]: 40 |
| O=C1NC[C@H](c2cccc(C(F)(F)F)c2)[C@H]1C(=O)Nc1cccc(F)c1F [Compound 206] | 0 | 0 | 70 | 90 | 0 | 0 | 0 | 20 | 90 | 98 | 98 | 98 | 0 | 0 | 0 | 75 | 75 | 55 | 85 | 30 | Plant response rating, Canarygrass ([5]; Preemergence, 125 g ai/ha): 85; Plant response rating, Kochia [6, 9]: 50; Plant response rating, Kochia [6, 10]: 70; Plant response rating, Kochia [6, 8]: 70 |
